{"source": "patent US7687472B2", "about": "“Methods and compositions for treating hyperglycemic, hyperlipidemic, or hyperinsulinemic disorders” (Ohio University, priority 2004, dated 2010)", "key": {"Glut4": {"test_system": "Glut4", "experiment": "Glut4 translocation by immunostaining and confocal microscopy in 3T3-L1 adipocytes", "type": "cell-based", "conditions": "FIG. 3", "protocol": "(§1) FIG. 3 illustrates induced Glut4 translocation. 3T3-L1 adipocytes were either uninduced, or induced by 1 μM insulin, or 30 μM 6Cl-α-TGQ. The treated cells were immunostained with an anti-Glut4 antibody followed with the secondary antibody (Fluorescein (FITC)-conjugated affinipure F(ad′)2 fragment Donkey anti-Mouse IgG). The cells were then mounted for microscopic visualization. The immunostained cells were visualized with a Zeiss LSM510 confocal microscope at wavelength of 488 nm for excitation and 520 nm for emission.\nas §1, with “The” for “FIG. 3 illustrates induced Glut4 translocation. 3T3-L1 adipocytes were either uninduced, or induced by 1 μM insulin, or 30 μM 6Cl-α-TGQ. The”"}, "IR": {"test_system": "IR", "experiment": "IR phosphorylation by Western blot in CHO-IR cells", "type": "cell-based", "conditions": "anti-phosphorylated IR antibody", "protocol": "(§2) FIG. 6 illustrates that novel TGQ compounds stimulate IR and Akt phosphorylation in CHO-IR cells and Akt phosphorylation in 3T3-L1 fat cells. CHO-IR cells or 3T3-L1 adipocytes were induced under conditions as shown. Total protein was isolated from the cells and subjected SDS-PAGE and subsequently transferred to a […] membrane. The proteins on the membrane were detected by anti-phosphorylated IR or Akt antibodies. […] Thirty to 60 μg of total protein and the biotinylated protein marker was mixed with SDS sample buffer and heated at 95-100° C. for 5 minutes. Then, each sample and a marker were subjected to 8% SDS POLYACRYLAMIDE GEL ELECTROPHORESIS (SDS-PAGE). After electrophoresis, the proteins on the gel were transferred to a nitrocellulose. The nitrocellulose membrane was blocked, and then incubated with the desired primary antibody (specifically against either phosphorylated form of IR or Akt) overnight at 4° C. with gentle agitation. After overnight incubation, the membrane was washed, and then incubated with the HRP-conjugated secondary antibody for 1 hour at room temperature. Then, the membrane was washed, the proteins on the membrane were detected by a Western blotting LumiGLO system (Cell Signaling Tech, Inc) and finally visualized by exposing the membrane to an x-ray film in a cassette for a proper time, usually from 1 to 10 minutes."}, "Akt": {"test_system": "Akt", "experiment": "Akt phosphorylation by Western blot in CHO-IR cells and 3T3-L1 adipocytes", "type": "cell-based", "conditions": "CHO-IR cells or 3T3-L1 adipocytes; anti-phosphorylated Akt antibody", "protocol": "as §2"}, "3T3-L1 preadipocytes [1]": {"test_system": "3T3-L1 preadipocytes", "experiment": "MDI-induced differentiation of 3T3-L1 preadipocytes into adipocytes, measured by glucose uptake", "type": "cell-based", "conditions": "MDI plus 20 μM compound; ten days after induction; FIG. 4", "protocol": "FIG. 4 illustrates adipocyte differentiation induced by MDI. […] Ten days after the induction, cells were assayed for their respective ability to take up glucose from the media by a radioactive glucose uptake assay. Each sample (condition) was in triplicate. The concept that adipocyte differentiation can be indirectly measured by glucose uptake was based on the observation that only differentiated adipocytes can take up glucose through a Glut4-mediated pathway while undifferentiated preadipocytes cannot.\nTo determine the effective concentration of the compounds of Formula I, II, or III to use in preventing adipogenesis in vitro, undifferentiated preadipocytes are incubated either with a differentiation-induction cocktail, comprised of 3-isobutyl-1-methylxanthine, dexamethasone, and insulin (MDI); or with MDI plus the test compound. After about 10 days MDI induces differentiation, which is clearly visible as the change from fibroblast-like preadipocytes to round-shaped, fat vesicle-containing adipocytes. […]\nTen days after the induction, cells were assayed for their respective ability to take up glucose from the media by a standard radioactive glucose uptake assay. […] The adipocyte differentiation can be measured by glucose uptake because only differentiated adipocyte can take up glucose through Glut4-mediated pathway while undifferentiated preadipocytes cannot."}, "3T3-L1 adipocytes": {"test_system": "3T3-L1 adipocytes", "experiment": "Glucose uptake ([3H] 2-deoxy-D-glucose) assay in 3T3-L1 adipocytes", "type": "cell-based", "conditions": "for glucose transport inducing activity compared with α-PGG: α-PGG 30 μM", "protocol": "Glucose uptake activity in cells may be analyzed by measuring the uptake of 2-deoxy-D-[3H] glucose using a standard assay. Confluent 3T3-L1 adipocytes grown in 12-well plates are washed twice with serum-free DMEM and incubated with 1 mL of the same medium at 37° C. for 2 h. The cells are washed 3 times with Krebs-Ringer-Hepes (KRP) buffer and incubated with 0.9 mL KRP buffer at 37° C. for 30 min. Insulin (positive control) or the compounds of Formula I, II, or III (experimentals) are then added at pre-determined concentrations and adipocytes are incubated at 37° C. for 15 min. Glucose uptake is initiated by addition of 0.1 mL KRP buffer and 37 MBq/L 2-deoxy-D-[^3H] glucose and 1 mmol/L glucose as final concentrations. After 10 min, glucose uptake is terminated by washing the cells 3 times with cold PBS. The cells are lysed with 0.7 mL of 1% Triton X-100 at 37° C. for 20 min. The radioactivity retained by the cell lysates is determined by a scintillation counter. The dosage that induces the maximal glucose uptake can be selected among the experimental samples.\n6Cl-α-TGQ and 6Cl-β-TGQ were synthesized as described above. α-TGQ was synthesized using methods analogous to the preparation of 6Cl-α-TGQ (Examples 1 and 2) starting from commercially available 6-deoxy-D-glucose. Alpha-pentagalloylglucose (α-PGG) was obtained. 3T3-L1 preadipocytes grown in 24-well plates were induced by MDI until they were differentiated into adipocytes. Adipocytes were washed twice with serum-free DMEM and incubated with 0.5 ml of the same medium in 10% C02 at 37 ° C. for 2 hours. The cells were washed 3 times with Kerbs-Ringer-HEPES (KRP) buffer (136 mM NaCl, 4.7 mM KCl, 1.25 mM CaCl2, 1.25 mM MgSO4 and 10 mM sodium phosphate buffer at pH 7.4) and then incubated with 0.45 ml KRP buffer at 37 ° C. for 30 minutes. Glucose transport inducing agents were individually added to the cells at predetermined concentrations and each condition was duplicated or triplicated, then the adipocytes were incubated at 37 ° C. for 15 minutes. Glucose uptake was initiated by the addition of 0.1 ml of KPR buffer supplemented with 1 μCi/ml [^3H] 2-deoxy-D-glucose and 1 mM cold glucose as the final concentration to the cells. After 10 min, the medium was aspirated and the plates were washed with ice-cold PBS three times to terminate the induced glucose uptake. The cells were lysed with 0.45 ml of 1% triton X-100 at 37 ° C. for 20 min. The radioactivity taken up by the cells was determined in a solution of 0.4 ml of the cell lysates and 5 ml of scintillation liquid using a scintillation counter (Beckman Instruments).\n6Br-α-TGQ and 6Br-β-TGQ were chemically synthesized using a preparation analogous to the preparation of 6Cl-TGQ (Examples 1, 2 and 3) starting from commercially available 6-bromo-D-glucose. 6Cl-α-TGQ was synthesized as described above. Alpha-pentagalloylglucose (α-PGG) was obtained. Confluent 3T3-L1 adipocytes were purchased from ATCC and grown in 12-well plates are washed twice with serum-free DMEM and incubated with 1 mL of the same medium at 37° C. for 2 h. The cells are washed 3 times with Krebs-Ringer-Hepes (KRP) buffer and incubated with 0.9 mL KRP buffer at 37° C. for 30 min.\nGlucose uptake was initiated by addition of 0.1 mL KRP buffer and 37 MBq/L 2-deoxy-D-[^3H] glucose and 1 mmol/L glucose as final concentrations, and the ^3H labeled glucose was then added to the cells for 15 min. […] The radioactivity retained by the cell lysates was determined by a scintillation counter. […]"}, "3T3-L1 preadipocytes [2]": {"test_system": "3T3-L1 preadipocytes", "conditions": "α-PGG used at 20 μM with MDI; cited from earlier work"}}}
{"molecule": "6-chloro-1,2,3,4-tetragalloyl-D-quinovopyranose [6Cl-TGQ]", "values": [{"measurement": "Glut4 translocation to the cell membrane", "setting": "Glut4; 30 μM compound", "result": "induced Glut4 translocation to the cell membrane"}, {"measurement": "IR phosphorylation", "setting": "IR", "result": "can induce IR and Akt phosphorylation"}, {"measurement": "Akt phosphorylation", "setting": "Akt", "result": "can induce IR and Akt phosphorylation"}]}
{"molecule": "6-chloro-1,2,3,4-tetragalloyl-D-quinovopyranose [6Cl-β-TGQ]", "values": [{"measurement": "inhibition of adipocyte differentiation", "setting": "3T3-L1 preadipocytes [1]", "result": "inhibit adipocyte differentiation"}]}
{"molecule": "O=C(O[C@H]1O[C@H](CCl)[C@@H](OC(=O)c2cc(O)c(O)c(O)c2)[C@H](OC(=O)c2cc(O)c(O)c(O)c2)[C@H]1OC(=O)c1cc(O)c(O)c(O)c1)c1cc(O)c(O)c(O)c1", "note": "[6Cl-α-TGQ, 6-chloro-α-1,2,3,4-tetragallolyl-D-quinovopyranose]", "values": [{"measurement": "more glucose transported than the insulin controls", "setting": "3T3-L1 adipocytes; 30 μM compound, insulin control 1 μM, FIG. 2", "result": 10, "unit": "%"}, {"measurement": "glucose transport activity compared with insulin", "setting": "3T3-L1 adipocytes; insulin 1 μM, FIG. 2", "result": "as active as insulin"}, {"measurement": "glucose transport inducing activity compared with α-PGG", "setting": "3T3-L1 adipocytes; FIG. 2", "result": "more active than pentagalloyl-α-D-glucopyranose (α-PGG)"}, {"measurement": "glucose transport inducing activity compared with α-PGG", "setting": "3T3-L1 adipocytes; FIG. 2, listed as 6Cl-α: TGQ", "result": "more active than α-PGG"}, {"measurement": "Glut4 translocation to the cell membrane", "setting": "Glut4; 30 μM compound", "result": "induced Glut4 translocation to the cell membrane"}, {"measurement": "inhibition of adipocyte differentiation", "setting": "3T3-L1 preadipocytes [1]", "result": "inhibit adipocyte differentiation"}]}
{"molecule": "O=C(OC[C@H]1O[C@H](OC(=O)c2cc(O)c(O)c(O)c2)[C@H](OC(=O)c2cc(O)c(O)c(O)c2)[C@@H](OC(=O)c2cc(O)c(O)c(O)c2)[C@@H]1OC(=O)c1cc(O)c(O)c(O)c1)c1cc(O)c(O)c(O)c1", "note": "[α-PGG, pentagalloyl-α-D-glucopyranose]", "values": [{"measurement": "inhibition of adipocyte differentiation (known)", "setting": "3T3-L1 preadipocytes [2]", "result": "known to inhibit the differentiation"}]}
{"molecule": "CC1OC(OC(=O)c2cc(O)c(O)c(O)c2)C(OC(=O)c2cc(O)c(O)c(O)c2)C(OC(=O)c2cc(O)c(O)c(O)c2)C1OC(=O)c1cc(O)c(O)c(O)c1", "note": "(stereo not drawn) [α-TGQ]", "values": [{"measurement": "glucose transport stimulatory activity", "setting": "3T3-L1 adipocytes; various concentrations", "result": "active"}]}
{"molecule": "insulin: the hormone which regulates glucose utilization; positive control", "values": [{"measurement": "Glut4 translocation to the cell membrane", "setting": "Glut4; 1 μM insulin", "result": "induced Glut4 translocation to the cell membrane"}]}
